The subject of series [1] is IL1β (interleukin 1 beta). The experiment in a line: Inhibition of LPS-induced synthesis and liberation of cellular IL1β in human mononuclear cells (sandwich enzyme immuno test of supernatant). The format is cell-based. Particulars: for activity at 10 µM: concentration 0.01 mmol/l; for activity at 100 µM: concentration 0.1 mmol/l; for inhibitory effect on the synthesis and liberation of cytokines from human blood cells / effect on the IL1β level: in words; for effect on the IL1β level: human mononuclear cells, LPS-induced. As for the experimental part:
10 ml of freshly prepared human citrate blood were carefully underlaid with 15 ml of Lymphoprep® (Molter GmbH, Heidelberg) and then centrifuged at 400×g for 40 min. at 20° C. The cell fraction which was visible as a white ring at the phase boundary was withdrawn with the aid of a syringe, diluted 1:1 (v/v) with PM-16 buffer (from Serva Feinbiochemica GmbH & Co. KG, Heidelberg) and then centrifuged, as above, for 10 min. […] Using a cell counter (type IT, from Coulter Diagnostics, Krefeld), the cell suspension, which is composed of about 90% lymphocytes and 10% monocytes, was adjusted to about 5 million cells/ml. Cell viability was monitored before and after the inhibition experiments using the known lactate dehydrogenase method.
The synthesis and liberation of cellular IL1β was induced by adding a solution of 500 ng of lipopolysaccharide (Salmonella abortus equi, Sigma GmbH, Deisenhofen) in 0.01 ml of dimethyl sulfoxide/water (1:10, v/v) to 0.48 ml of the above-described cell fraction. At the same time, a solution of leflunomide or leflunomide metabolite in 0.01 ml of dimethyl sulfoxide (for the final concentration in each case, see Tab. 1) was added to the cell fraction and the mixture was left at 37° C. for 20 h in a commercially available incubator. After cooling down to 0° C., the samples were centrifuged for 1 min. in a bench centrifuge and in each case 0.025 ml aliquots of the supernatant were examined for their IL1β content using a "sandwich" enzyme-immuno test kit (from Biermann GmbH, Bad Nauheim) in accordance with the manufacturer's instructions. The control values were determined without the addition of leflunomide or metabolite and set at 100%.

For series [2], the system named is SD rat. The series is described as follows: Acute toxicity following intraperitoneal administration, SD rats. The format is in vivo. Particulars: after 3 weeks, Litchfield and Wilcoxon, 30240 min. As for the experimental part:
(§1) The acute toxicity following intraperitoneal administration of the test substance was carried out using NMRI mice (20 to 25 g) and SD rats (120 to 195 g). The test substance was suspended in a 1% strength solution of sodium carboxymethyl cellulose. The different doses of the test substance were administered to the mice in a volume of 10 ml/kg of body weight and to the rats in a volume of 5 ml/kg of body weight. 10 animals were used per dose. After 3 weeks, the acute toxicity was determined by the method of Litchfield and Wilcoxon.

Series [3] concerns NMRI mouse. The experiment in a line: Acute toxicity following intraperitoneal administration, NMRI mice. The series is classed as in vivo. Particulars: after 3 weeks, Litchfield and Wilcoxon, 30240 min. On the procedure: as §1
Series [4] is described as follows: Metabolism of leflunomide in the mononuclear cell test sample (HPLC, time-dependent). Particulars: human, mononuclear cells; mononuclear cell test sample, 37° C., HPLC. The format is in vitro ADME, human.
Series [5] relates to isolated blood cell fraction (mononuclear cells). The series is described as above. The series is classed as in vitro ADME, human. Conditions: in words; isolated blood cell fraction (mononuclear cells).
Where [6] appears, read: Homo sapiens, control without addition = 100%, +/- standard deviation, 20 h, 37° C., LPS 500 ng.

Entries after “also recorded” stand apart in the source; their conditions may differ.

With `C/C(O)=C(\C#N)C(=O)Nc1ccc(C(F)(F)F)cc1` [Leflunomide metabolite, N-(4-trifluoromethylphenyl)-2-cyano-3-hydroxycrotonamide], in series [1] (setting [6]), the activity at 10 µM was determined as 100 ± 3% and the activity at 100 µM was 99 ± 12%. Moreover, in series [1], the “inhibitory effect on the synthesis and liberation of cytokines from human blood cells” value is reported as “does not exhibit this advantageous effect”; the “effect on the IL1β level” value was “practically no effect on the IL1β level”.
Consider `Cc1oncc1C(=O)Nc1ccc(C(F)(F)F)cc1` [Leflunomide, N-(4-trifluoromethylphenyl)-5-methylisoxazole-4-carboxamide], for which the “acute toxicity intraperitoneally LD50” value in series [2] is on record as 170 (153-189) mg/kg. In addition, the activity at 0.1 µM in series [1] (Homo sapiens, concentration 0.0001 mmol/l, control without addition = 100%, +/- standard deviation, 20 h, 37° C., LPS 500 ng) was determined as 86 ± 11%. In addition, the activity at 5 µM in series [1] (Homo sapiens, concentration 0.005 mmol/l, control without addition = 100%, n = 2, deviation not given, 20 h, 37° C., LPS 500 ng) came to 68%. In series [1] (setting [6]), the activity at 10 µM came out at 70 ± 8% and the activity at 100 µM came out at 17 ± 4%. Also, the activity at 50 µM in series [1] (Homo sapiens, concentration 0.05 mmol/l, control without addition = 100%, +/- standard deviation, 20 h, 37° C., LPS 500 ng) stood at 27 ± 6%. Also, in series [1], the “inhibitory effect on the synthesis and liberation of cytokines from human blood cells” value is given as “strong inhibitory effect”; the “effect on the IL1β level” value is given as “clearly lowered”. In series [3], the “acute toxicity intraperitoneally LD50” value is listed as 185 (163-210) mg/kg. Besides, the half-life in series [4] is around 10 h. The “metabolism of leflunomide under the experimental conditions” value in series [5] was “did not, to any appreciable extent, metabolize the leflunomide to its metabolites; also recorded: metabolized only very slowly; also recorded: no appreciable metabolism”.

The values above are taken from patent US5556870A, “Use of leflunomide for inhibiting interleukin 1 beta” (priority 1993, dated 1996).
